Each block holds one compound with its values, some of them ahead of it.
Columns and labels:
MSSA = assay: Plug-based drug screening in human blood plasma/LB; settings: 1:1 human blood plasma/LB; breakpoint concentration; 7.5 h at 37° C.
[1] = system: Methicillin Sensitive S. aureus (MSSA); settings: CFX 24 mg/L; stated as known; cited from earlier work
[2] = system: Methicillin Resistant S. aureus (MRSA); settings: CFX 24 mg/L; stated as known; cited from earlier work
[3] = system: Methicillin Resistant S. aureus (MRSA); assay: MIC determination in plugs; settings: Staphylococcus aureus, 6.75 h, read-out: MIC of CFX for MRSA
[4] = system: Methicillin Sensitive S. aureus (MSSA); assay: MIC determination in plugs; settings: Staphylococcus aureus, 6.5 h, read-out: MIC of CFX for MSSA
[5] = system: MSSA (Staphylococcus aureus ATCC# 25923); assay: Antibiotic testing on Mueller Hinton agar plates; settings: 30° C., even after 40 h
[6] = system: Methicillin Resistant S. aureus (MRSA, ATCC# 43300); assay: Plug-based microfluidic antibiotic susceptibility screen (stochastic confinement, alamarBlue viability indicator); format: cell-based, Staphylococcus aureus; settings: breakpoint concentration, 4 nL plugs, 4×10^5 CFU/mL, 7 h at 37° C.
S. aureus strain (MRSA) = assay: Macro-scale experiments (negative control check); format: cell-based, Staphylococcus aureus; settings: data not shown

Compound: CC1(C)S[C@@H]2[C@H](NC(=O)[C@H](N)c3ccccc3)C(=O)N2[C@H]1C(=O)O [AMP, ampicillin]
Increase in fluorescence intensity of plugs containing MSSA and antibiotic (MSSA): no increase in fluorescence intensity

MIC [3]: < 8000 µg/mL | MIC [4]: < 4000 µg/mL
Compound: CO[C@@]1(NC(=O)Cc2cccs2)C(=O)N2C(C(=O)O)=C(COC(N)=O)CS[C@@H]21 [CFX, cefoxitin]
Inhibition of MSSA at the positive control concentration [1]: inhibited | Inhibition of MRSA at the positive control concentration [2]: inhibited | Appearance of MSSA colonies on antibiotic plates [5]: did not appear

Compound: Cc1onc(-c2ccccc2)c1C(=O)N[C@@H]1C(=O)N2[C@@H]1SC(C)(C)[C@@H]2C(=O)O [OXA, oxacillin]
Appearance of MSSA colonies on antibiotic plates [5]: did not appear

Compound: CN[C@H](CC(C)C)C(=O)N[C@H]1C(=O)N[C@@H](CC(N)=O)C(=O)N[C@H]2C(=O)N[C@H]3C(=O)N[C@H](C(=O)N[C@H](C(=O)O)c4cc(O)cc(O)c4-c4cc3ccc4O)[C@H](O)c3ccc(c(Cl)c3)Oc3cc2cc(c3O[C@@H]2O[C@H](CO)[C@@H](O)[C@H](O)[C@H]2O[C@H]2C[C@](C)(N)[C@H](O)[C@H](C)O2)Oc2ccc(cc2Cl)[C@H]1O [VCM, vancomycin]
Susceptibility of MRSA to antibiotic (increase in fluorescence intensity of plugs versus 3 times the VCM baseline) [6]: sensitive | Susceptibility of MRSA to antibiotic (increase in fluorescence intensity of plugs versus 3 times the VCM baseline) ([6]; listed as Vancomycin): not resistant | Inhibition of the S. aureus strain in macro-scale experiments (S. aureus strain (MRSA)): inhibited

— patent US11661577B2, “Co-incubating confined microbial communities” (CALIFORNIA INSTITUTE OF TECHNOLOGY, priority 2007, dated 2023)
